Reference: patent US4699903A, “Therapeutic use of tin diiododeuteroporphyrin” (The Rockefeller University, priority 1987, dated 1987)
Values joined by “and” are separate entries in the source; they are usually repeats but may differ in a detail not shown here. Equal entries are not always repeated. Where two headings read alike, the source gives them in different places.

Key:
serum bilirubin [1] = test: Serum bilirubin in ALA-treated hyperbilirubinemia, 7-day old suckling rats; type: in vivo, rat; conditions: ALA 50 μmmol/100 g at 0, 4 and 8 hours, sacrificed 16 hours after last ALA
Method: (§1) The next study established the ability of SnI2 DP to inhibit the ability of γ-aminolevulinic acid (ALA) to produce jaundice. This study of the efficacy of SnI2 DP to control hyperbilirubinemia thereby preventing the jaundice which develops in rats treated 7 days after birth with ALA is described by Drummond and Kappas, J. Clin. Invest. 74, 142-149 (1984). In the test, ALA (50 μmmol/100 g body weight) is administered to suckling 7 day old rats at 0, 4 and 8 hours, the animals sacrificed 16 hours after the last administration of ALA, and the serum biliribin measured.

heme oxygenase [2] = test: Hepatic heme oxygenase activity in ALA-treated 7-day old suckling rats; type: in vivo, rat; conditions: ALA 50 μmmol/100 g at 0, 4 and 8 hours, sacrificed 16 hours after last ALA
Method: as §1
(§2) Heme oxygenase was determined as described by Drummond and Kappas Proc. Natl. Acad. Sci. USA 78: 6466(1981).

heme oxygenase [3] = molecular target: T1, heme oxygenase (Rattus norvegicus, UniProt P06762); test: Inhibition of heme oxygenase conversion of heme to bilirubin, rat spleen microsomes; type: biochemical; set-up: using rat spleen microsomes as the source of heme oxygenase; from tissue; host or cells: rat spleen microsomes; conditions: for inhibition constant compared with that of SnI2 DP: heme oxygenase; for Ki: rat spleen microsomes
T1 sequence (P06762 1-289): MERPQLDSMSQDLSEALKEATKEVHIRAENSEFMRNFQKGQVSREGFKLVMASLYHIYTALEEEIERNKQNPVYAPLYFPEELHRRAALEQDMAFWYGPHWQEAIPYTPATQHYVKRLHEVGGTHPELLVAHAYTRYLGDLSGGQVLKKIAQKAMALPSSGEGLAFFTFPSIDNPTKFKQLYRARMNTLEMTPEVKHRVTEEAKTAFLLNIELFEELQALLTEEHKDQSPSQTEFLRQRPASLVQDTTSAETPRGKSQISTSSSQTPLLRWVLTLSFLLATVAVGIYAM
Method: In an initial study using rat spleen microsomes as the source of heme oxygenase the ability of SnI2 DP to inhibit the activity of heme oxygenase to convert heme to bilirubin was determined.
Km=rate constant for heme oxygenase
KmAPP =rate constant for heme oxygenase in the presence of SnI2 DP

[4] = Singlet and triplet lifetimes; type: physicochemical
Method: (3) Singlet and triplet lifetimes: The singlet lifetime of SnI2 DP was determined to be 23 psec (this is at the lower levels of instrument detection). The singlet lifetimes of SnPP and SnMP are 500-600 p sec. The triplet lifetime of SnI2 DP was determined to be 0.2 millisec. The triplet lifetimes of SnPP and SnMP are 0.5 and 2.5 milliseconds respectively.

heme oxygenase [5] = molecular target: T1, heme oxygenase; test: Tissue heme oxygenase activity in bile duct cannulated adult rats; type: in vivo; set-up: from tissue; conditions: i.v. 10 μmol/kg b.w., n=5
Method: (§3) In the next in vivo test designed to measure the decrease in bilirubin production, SnI2 DP was administered intravenously to five adult rats, 12-15 weeks old at a dose of 10 μmol/kg body weight. Five control rats were administered saline. The bile duct was cannulated and the bile fluid analyzed for bilirubin content.
(§4) In addition, the activity of hepatic, renal and splenic heme oxygenase was decreased in bile duct cannulated animals administered SnI2 DP.
(§5) SnI2 DP administered i.v. at a dose of 10 μmol/kg b.w.
(§6) When compared to saline treated controls, n=5.

heme oxygenase [6] = test: Tissue heme oxygenase activity in newborn rats after SnI2 DP; type: in vivo, rat
Method: (§7) The in vivo ability of SnI2 DP to reduce serum bilirubin was established by studies in neonatal rats. The studies were conducted with four separate litters each containing ten neonates.
(§8) To prepare the solution for parenteral administration, SnI2 DP was taken up in a small volume of 0.2N sodium hydroxide, adjusted to pH 7.4 with 1N hydrochloric acid and made up to final volume with 0.9% sodium chloride. The solution as prepared and used contained a final SnI2 DP concentration of 10 μmol/kg body weight in each 0.1 ml injection volume. Control neonates received 0.1 ml of 0.9% sodium chloride at birth. One group of animals was sacrificed at 24 hours which is normally the peak of bilirubin for neonate rates. The total bilirubin in serum was estimated by the method of Roth, Clin. Chem. Acta, 17 487-492, 1967.
as §2

biliary bilirubin = test: Drop in biliary bilirubin production in bile duct cannulated adult rats; type: in vivo, rat
Method: as §3

heme oxygenase [7] = molecular target: T1, heme oxygenase; test: Tissue heme oxygenase activity after simultaneous administration of heme; type: in vivo; set-up: from tissue; conditions: heme 6.1 μmol/kg b.w. simultaneously, n = 4
Method: (§9) Simultaneous intraveous (IV) administration of heme (6.1 μmol/kg b.w.) and SnI2 DP was examined in four pairs of bile duct cannulated adult male rats. The effect of simultaneous administration of heme and SnI2 DP on heme levels in bile and tissue heme oxygenase activity are shown in Tables V and VI respectively.
(§10) Each group was administered heme (6.1 μmol/kg b.w.) simultaneously with either SnI2 DP or saline.

heme oxygenase [8] = test: as above; type: in vivo, rat; conditions: heme 6.1 μmol/kg b.w. simultaneously, n = 4
Method: as §9, §10

serum bilirubin [9] = test: Serum bilirubin levels in newborn rats; type: in vivo, rat
Method: as §7, §8

heme = test: Heme excretion in bile after simultaneous i.v. heme and SnI2 DP, bile duct cannulated adult male rats; type: in vivo, rat; conditions: heme 6.1 μmol/kg b.w. i.v. simultaneously
Method: as §9, §10

heme oxygenase [10] = test: Tissue heme oxygenase activity in bile duct cannulated adult rats; type: in vivo, rat; conditions: i.v. 10 μmol/kg b.w., n=5
Method: as §3, §4, §5, §6

[11] = Fluorescence characteristics in pyridine; type: physicochemical
Method: (2) Fluorescence characteristics: A 1 μM solution of SnI2 DP in pyridine was excited at 400 nm and 2 emission peaks were detected at 578 nm and 635 nm. The measurable fluorescence represents less than 5% of that found for SnPP and SnMP.

NCC(=O)CCC(=O)O [ALA, γ-aminolevulinic acid, reference compound]
Serum Bilirubin (serum bilirubin [1]): 0.99 ± 0.06 mg/dL
Heme Oxygenase Liver (heme oxygenase [2]): 11.29 ± 0.33 nmol/mg p h

C=Cc1c2[n-]c(c1C)/C=c1\[n-]/c(c(C)c1C=C)=C\c1[n-]c(c(CCC(=O)O)c1C)C=c1[n-]/c(c(C)c1CCC(=O)O)=C\2.[Sn+4] [SnPP, tin protoporphyrin IX]
inhibition constant compared with that of SnI2 DP (heme oxygenase [3]): approximately the same
singlet lifetime [4]: 500-600 psec
triplet lifetime [4]: 0.5 millisec

tin diiododeuteroporphyrin [SnI2 DP]
Heme Oxygenase Spleen (heme oxygenase [5]): 5.37 ± 1.09 nmol/mg p h
kidney heme oxygenase activity (heme oxygenase [6]; neonates, repeated test, 48 hours after birth): 0.88 nmol/mg p h
Heme Oxygenase Kidney (heme oxygenase [6]; newborn rats, 10 μmol/kg at birth, 24 hours, kidney bulked): 1.13 nmol/mg p h
Heme Oxygenase Spleen (heme oxygenase [6]; newborn rats, 10 μmol/kg at birth, 24 hours, spleen bulked): 3.74 nmol/mg p h
Heme Oxygenase Liver (heme oxygenase [6]; newborn rats, 10 μmol/kg at birth, sacrificed at 24 hours): 8.07 ± 0.06 nmol/mg p h
Drop in biliary bilirubin production, % decrease (biliary bilirubin; adult rats, 10 μmol/kg i.v., bile duct cannulated, single experiments 1-5): 60% and 35% and 47% and 44% and 48%
average difference between treated and control decline in biliary bilirubin (biliary bilirubin; adult rats, 10 μmol/kg i.v., p<0.01): 21%
ability to lower heme oxygenase activity, serum and bile bilirubin levels, compared with SnMP (biliary bilirubin; rats): not as effective as SnMP
Heme Oxygenase Spleen (heme oxygenase [7]): 8.15 ± 0.52 nmol/mg p h
Ki (heme oxygenase [3]; Lineweaver Burke plots, average of four determinations, read-out: inhibition constant Ki): 0.069 ± 0.007 µM
Ki (heme oxygenase [3]; four separate determinations, read-out: Ki, separate determinations): 0.057 µM and 0.088 µM and 0.062 µM and 0.07 µM
Heme Oxygenase Kidney (heme oxygenase [8]): 1.04 ± 0.22 nmol/mg p h
Heme Oxygenase Liver (heme oxygenase [8]): 5.03 ± 0.72 nmol/mg p h
Serum Bilirubin (serum bilirubin [9]; newborn rats, 10 μmol/kg at birth, 24 hours): 0.34 ± 0.02 mg/dL
activity in preventing serum bilirubin increase, as % of that of SnMP (serum bilirubin [9]; rat neonates): about 10%
activity in preventing serum bilirubin increase, compared with SnPP (serum bilirubin [9]; rat neonates): roughly the same
Heme excreted in bile (% of administered dose), Average (heme; average of 4 experiments): 44.9 ± 4.79 % of administered dose
Heme excreted in bile (% of administered dose) (heme; single experiments 1-4): 51.8 % of administered dose and 48.8 % of administered dose and 48.2 % of administered dose and 30.7 % of administered dose
Heme Oxygenase Kidney (heme oxygenase [10]): 0.45 ± 0.03 nmol/mg p h
Heme Oxygenase Liver (heme oxygenase [10]): 2.06 ± 0.75 nmol/mg p h
Serum Bilirubin (serum bilirubin [1]): 0.54 ± 0.02 mg/dL
singlet lifetime [4]: 23 psec
triplet lifetime [4]: 0.2 millisec
photosensitizing potential compared with SnPP and SnMP ([4]; inferred from fluorescence and triplet lifetime): less photosensitizing potential
fluorescence quenched by comparison with SnPP [11]: 95%
measurable fluorescence as % of that found for SnPP and SnMP ([11]; 1 μM solution in pyridine, excited at 400 nm): less than 5%
Heme Oxygenase Liver (heme oxygenase [2]): 8.29 ± 0.48 nmol/mg p h

tin mesoporphyrin [SnMP]
inhibition constant compared with that of SnI2 DP (heme oxygenase [3]): approximately the same
singlet lifetime [4]: 500-600 psec
triplet lifetime [4]: 2.5 millisec
